# How the values were obtained:
# [1] = target: T1, Human LBAT (Homo sapiens, UniProt Q14973); assay: LBAT (h/m) assay: 3H-taurocholic acid uptake in human LBAT-overexpressing cells; assay type: cell-based; details: 0.3 μM 3H-taurocholic acid and 7.5 μM cold taurocholic acid, 20 minutes, read-out: hLBAT IC50
# T1 construct: expressed in transfected cells; kept under Geneticin selection
# T1 sequence (Q14973 1-349): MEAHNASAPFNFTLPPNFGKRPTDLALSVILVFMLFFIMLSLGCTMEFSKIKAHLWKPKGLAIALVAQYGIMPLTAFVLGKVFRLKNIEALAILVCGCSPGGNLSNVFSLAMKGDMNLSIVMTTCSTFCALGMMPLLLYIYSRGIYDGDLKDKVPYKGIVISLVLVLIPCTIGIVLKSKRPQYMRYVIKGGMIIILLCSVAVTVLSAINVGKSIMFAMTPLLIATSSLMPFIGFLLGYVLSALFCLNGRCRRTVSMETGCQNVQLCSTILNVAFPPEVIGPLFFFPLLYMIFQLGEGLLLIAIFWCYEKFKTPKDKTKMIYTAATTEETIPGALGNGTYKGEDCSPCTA
# Summary of the method: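 LBAT-overexpressing cells, serum-free MEM-alpha, 20 min at 37° C with inhibitor (3-fold, 10-point) plus 0.3 μM 3H-taurocholic acid and cold taurocholic acid (7.5 μM human; 25 μM mouse), 0.2% DMSO. Stopped on ice, washed with 1 mM unlabelled taurocholate; uptake by scintillation counting.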
# [2] = system: HepaRG cells; assay: HepaRG-based assay: 3H-taurocholic acid uptake in differentiated HepaRG cells; assay type: cell-based; details: Homo sapiens, HepaRG, 0.3 μM 3H-taurocholic acid and 7.5 μM cold taurocholic acid, 30 minutes
# Summary of the method: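 Differentiated HepaRG cells cultured 7 days post-seeding were exposed for 30 min at 37 °C to 0.3 μM 3H-taurocholic acid plus 7.5 μM cold taurocholic acid with inhibitor (3-fold dilutions, 0.2% DMSO). Uptake was stopped on ice, washed with 1 mM unlabelled taurocholic acid, and counted by scintillation.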
# [3] = Bioavailability studies in mice; assay type: in vivo; details: mouse; C57BL/6 mice; single intravenous dose 1 mg/kg vs single oral dose 10 mg/kg; plasma LC-MS/MS
# Experimental: C57BL/6 mice of 8-9 weeks old were used. For each test compound, two groups of 3 animals each were used. One group was administered a single intravenous dose of 1 mg/kg (vehicle 100% DMSO) through the tail vein and the other group was administered a single oral dose of 10 mg/kg through gavage needle. The group that was administered an oral dose was fasted overnight. Blood samples were collected after 0.083, 0.25, 0.5, 1, 2, 4, 6, 8 and 24 hours following intravenous administration, and after 0.25, 0.5, 1, 2, 4, 6, 8 and 24 hours following oral administration. Blood samples were taken from saphenous vein. 0.2% EDTA was used as the anticoagulant. The samples were analyzed by a discovery grade bioanalytical method developed for the estimation of test compound in plasma, using an LC-MS/MS system.
# [4] = target: T2, Human ASBT (Homo sapiens, UniProt Q12908); assay: ASBT (h/m) assay: 3H-taurocholic acid uptake in human ASBT-overexpressing cells; assay type: cell-based; details: 0.25 μM 3H-taurocholic acid and 5 μM cold taurocholic acid, 20 minutes, read-out: hASBT IC50
# T2 construct: expressed in transfected cells; kept under Puromycin selection
# T2 sequence (Q12908 1-348): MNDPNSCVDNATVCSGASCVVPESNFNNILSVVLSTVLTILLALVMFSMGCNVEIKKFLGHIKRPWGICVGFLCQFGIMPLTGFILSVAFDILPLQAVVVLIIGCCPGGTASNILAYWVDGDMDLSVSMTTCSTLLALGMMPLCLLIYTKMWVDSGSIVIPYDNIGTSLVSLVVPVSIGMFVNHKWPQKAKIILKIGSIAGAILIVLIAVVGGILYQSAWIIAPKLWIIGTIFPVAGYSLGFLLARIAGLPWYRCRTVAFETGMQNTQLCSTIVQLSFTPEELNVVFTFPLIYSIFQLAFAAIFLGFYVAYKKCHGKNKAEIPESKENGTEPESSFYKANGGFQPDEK
# Summary of the method: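 ASBT-overexpressing cells, seeded 48 h earlier, took up 0.25 µM 3H-taurocholic acid plus 5 µM cold taurocholate for 20 min at 37 °C with inhibitor (10-point 3-fold series, top 10 µM, 0.2% DMSO). Ice stop, washes with cold 1 mM taurocholate in HEPES-HBSS pH 7.4, scintillation counting.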
IC50 [1] [nM],IC50 [2] [nM],bioavailability [3] [%],IC50 [4] [nM],SMILES
4.4,325,20,,"CCCC[C@@]1(CC)CN(c2ccccc2)c2cc(SC)c(O/C=C(\F)C(=O)O)cc2S(=O)(=O)N1C (single isomer, unassigned) [Example 99]"
31,246,,673,"CCCCC1(CC)CN(c2ccccc2)c2cc(Br)c(O/C=C(\F)C(=O)O)cc2S(=O)(=O)N1C (stereo not drawn) [Example 106, (Z)-3-((7-bromo-3-butyl-3-ethyl-2-methyl-1,1-dioxido-5-phenyl-2,3,4,5-tetrahydro-1,2,5-benzothiadiazepin-8-yl)oxy)-2-fluoroacrylic Acid]"
50,365,,59,"CCCCC1(CCCC)CN(c2ccc(F)c(F)c2)c2cc(SC)c(O/C=C(\F)C(=O)O)cc2S(=O)(=O)C1 [Example 107, (Z)-3-((3,3-dibutyl-5-(3,4-difluorophenyl)-7-(methylthio)-1,1-dioxido-2,3,4,5-tetrahydro-1,5-benzothiazepin-8-yl)oxy)-2-fluoroacrylic Acid]"
5.9,447,,8.5,"CCCCC1(CC)CN(c2ccccc2)c2cc(N(C)C)c(O/C=C(\F)C(=O)O)cc2S(=O)(=O)C1 (stereo not drawn) [Example 108, (Z)-3-((3-butyl-7-(dimethylamino)-3-ethyl-1,1-dioxido-5-phenyl-2,3,4,5-tetrahydro-1,5-benzothiazepin-8-yl)oxy)-2-fluoroacrylic Acid]"

# Reference: US11306064B2, “Benzothia(di)azepine compounds and their use as bile acid modulators” (Albireo AB, priority 2018, dated 2022)
